tested on: sAPPβ release in SH-SY5Y cells; test: sAPPβ release assay; format: cell-based; conditions: Homo sapiens, SH-SY5Y, 17 h, compounds incubated 17 h, MSD detection
Procedure: Thaw cells and seed at a conc. of around 10000 cells/well in DMEM/F-12 with Glutamax, 10% FCS and 1% non-essential amino acids to a 384-well tissue culture treated plate, 100 μL cell susp/well. […] The cell medium was removed, followed by addition of 30 μL compound diluted in DMEM/F-12 with Glutamax, 10% FCS, 1% non-essential amino acids and 1% PeSt to a final conc. of 1% DMSO. The compounds were incubated with the cells for 17 h (overnight) at 37° C., 5% CO2. Meso Scale Discovery (MSD) plates were used for the detection of sAPPβ release. MSD sAPPβ plates were blocked in 1% BSA in Tris wash buffer (40 μL/well) for 1 h on shake at r.t. and washed 1 time in Tris wash buffer (40 μL/well). 20 μL of medium was transferred to the pre-blocked and washed MSD sAPPβ microplates, and the cell plates were further used in an ATP assay to measure cytotoxicity. The MSD plates were incubated with shaking at r.t. for 2 h and the media discarded. 10 μL detection antibody was added (1 nM) per well followed by incubation with shaking at r.t. for 2 h and then discarded. 40 μL Read Buffer was added per well and the plates were read in a SECTOR Imager.

IC50 [nM] | Compound
171 | CO[C@H]1CC[C@]2(CC1)Cc1ccc(C#N)cc1C21N=C(C)C(N)=N1 (stereo partly shown) [Example 79, (1r,4r)-4″-Amino-4-methoxy-5″-methyl-3′H-dispiro[cyclohexane-1,2′-indene-1′,2″-imidazole]-6′-carbonitrile]
13 | COCc1cccc(-c2ccc3c(c2)C2(N=C(C)C(N)=N2)[C@]2(CC[C@H](OC)CC2)C3)c1 (stereo partly shown) [Example 80, (1r,4r)-4-Methoxy-6′-[3-(methoxymethyl)phenyl]-5″-methyl-3′H-dispiro[cyclohexane-1,2′-indene-1′,2″-imidazol]-4″-amine]
20 | COCc1cc(F)cc(-c2ccc3c(c2)C2(N=C(C)C(N)=N2)[C@]2(CC[C@H](OC)CC2)C3)c1 (stereo partly shown) [Example 81, (1r,4r)-6′-[3-Fluoro-5-(methoxymethyl)phenyl]-4-methoxy-5″-methyl-3′H-dispiro[cyclohexane-1,2′-indene-1′,2″-imidazol]-4″-amine]
36 | CO[C@H]1CC[C@]2(CC1)Cc1ccc(-c3cncc(COCC(F)(F)F)c3)cc1C21N=C(C)C(N)=N1 (stereo partly shown) [Example 82, (1r,4r)-4-Methoxy-5″-methyl-6′-{5-[(2,2,2-trifluoroethoxy)methyl]pyridin-3-yl}-3′H-dispiro[cyclohexane-1,2′-indene-1′,2″-imidazol]-4″-amine]
0.99 | CO[C@H]1CC[C@]2(CC1)Cc1ccc(-c3cncc(C(F)(F)F)c3)cc1[C@@]21N=C(C)C(N)=N1 [Example 84, (1r,1′R,4R)-4-Methoxy-5″-methyl-6′-[5-(trifluoromethyl)pyridin-3-yl]-3′H-dispiro[cyclohexane-1,2′-indene-1′,2″-imidazol]-4″-amine]
0.8 | CO[C@H]1CC[C@]2(CC1)Cc1ccc(-c3cc(C#N)cc(C(F)(F)F)c3)cc1[C@@]21N=C(C)C(N)=N1 [Example 85]
0.93 | COc1cc(-c2ccc3c(c2)[C@@]2(N=C(C)C(N)=N2)[C@]2(CC[C@H](OC)CC2)C3)cc(C#N)c1F [Example 87, 5-[(1r,1′R,4R)-4″-Amino-4-methoxy-5″-methyl-3′H-dispiro[cyclohexane-1,2′-indene-1′,2″-imidazol]-6′-yl]-2-fluoro-3-methoxybenzonitrile]
4.8 | CO[C@H]1CC[C@]2(CC1)Cc1ccc(-c3cc(F)cc(F)c3)cc1[C@@]21N=C(C)C(N)=N1 [Example 88, (1r,1′R,4R)-6′-(3,5-difluorophenyl)-4-methoxy-5″-methyl-3′H-dispiro[cyclohexane-1,2′-indene-1′,2″-imidazol]-4″-amine]
1.7 | COc1cccc(-c2ccc3c(c2)[C@@]2(N=C(C)C(N)=N2)[C@]2(CC[C@H](OC)CC2)C3)c1F [Example 89, (1r,1′R,4R)-6′-(2-Fluoro-3-methoxyphenyl)-4-methoxy-5″-methyl-3′H-dispiro[cyclohexane-1,2′-indene-1′,2″-imidazol]-4′″-amine]
0.56 | CO[C@H]1CC[C@]2(CC1)Cc1ccc(-c3cc(Br)cc(C#N)c3)cc1C21N=C(C)C(N)=N1 (stereo partly shown) [Example 93, 3-[(1r,4r)-4″-Amino-4-methoxy-5″-methyl-3′H-dispiro[cyclohexane-1,2′-indene-1′,2″-imidazol]-6′-yl]-5-bromobenzonitrile]
3.6 | CCc1cc(C#N)cc(-c2ccc3c(c2)C2(N=C(C)C(N)=N2)[C@]2(CC[C@H](OC)CC2)C3)c1 (stereo partly shown) [Example 95, 3-[(1r,4r)-4″-Amino-4-methoxy-5″-methyl-3′H-dispiro[cyclohexane-1,2′-indene-1′,2″-imidazol]-6′-yl]-5-ethylbenzonitrile]
14 | CO[C@H]1CC[C@]2(CC1)Cc1ccc(-c3ccc(F)cc3F)cc1[C@@]21N=C(C)C(N)=N1 [Example 103]
34 | CO[C@H]1CC[C@]2(CC1)Cc1ccc(-c3cccc(Cl)c3Cl)cc1[C@@]21N=C(C)C(N)=N1 [Example 104, (1r,1′R,4R)-6′-(2,3-dichlorophenyl)-4-methoxy-5″-methyl-3′H-dispiro[cyclohexane-1,2′-indene-1′,2″-imidazol]-4″-amine]
28 | CC1=NC2(N=C1N)c1cc(-c3cc(F)cc(F)c3)ccc1C[C@]21CC[C@@H](OC(F)F)CC1 (stereo partly shown) [Example 109]
2 | CO[C@H]1CC[C@]2(CC1)Cc1ccc(C#CC3CCC3)cc1C21N=C(C)C(N)=N1 (stereo partly shown) [Example 112, (1r,4r)-6′-(Cyclobutylethynyl)-4-methoxy-5″-methyl-3′H-dispiro[cyclohexane-1,2′-indene-1′,2″-imidazol]-4″-amine]
1.6 | CO[C@H]1CC[C@]2(CC1)Cc1ccc(C#CC(C)C)cc1C21N=C(C)C(N)=N1 (stereo partly shown) [Example 113, (1r,4r)-4-Methoxy-5″-methyl-6′-(3-methylbut-1-yn-1-yl)-3′H-dispiro[cyclohexane-1,2′-indene-1′,2″-imidazol]-4″-amine]
0.14 | [2H]C([2H])([2H])C#Cc1cncc(-c2ccc3c(c2)[C@@]2(N=C(C)C(N)=N2)[C@]2(CC[C@H](OC)CC2)C3)c1 [Example 114, (1r,1′R,4R)-4-Methoxy-5″-methyl-6′-{5-[(^2H3)prop-1-yn-1-yl]pyridin-3-yl}-3′H-dispiro[cyclohexane-1,2′-indene-1′,2″-imidazol]-4″-amine]

same assay, conditions: Homo sapiens, compounds incubated 17 h, MSD detection

IC50 [nM] | Compound
2.9 | CO[C@H]1CC[C@]2(CC1)Cc1ccc(-c3cncc(C)c3)cc1[C@@]21N=C(C)C(N)=N1 [Example 83, (1r,1′R,4R)-4-Methoxy-5″-methyl-6′-(5-methylpyridin-3-yl)-3′H-dispiro[cyclohexane-1,2′-indene-1′,2″-imidazol]-4″-amine]
1.1 | CO[C@H]1CC[C@]2(CC1)Cc1ccc(-c3cc(C#N)cc(C(F)F)c3)cc1[C@@]21N=C(C)C(N)=N1 [Example 86, 3-[(1r,1′R,4R)-4″-Amino-4-methoxy-5-methyl-3′H-dispiro[cyclohexane-1,2′-indene-1′,2″-imidazol]-6′-yl]-5-(difluoromethyl)benzonitrile]
14 | CO[C@H]1CC[C@]2(CC1)Cc1ccc(-c3ccccc3)cc1[C@@]21N=C(C)C(N)=N1 [Example 90, (1r,1′R,4R)-4-Methoxy-5″-methyl-6′-phenyl-3′H-dispiro[cyclohexane-1,2′-indene-1′,2″-imidazol]-4″-amine]
0.62 | COc1cc(C#N)cc(-c2ccc3c(c2)C2(N=C(C)C(N)=N2)[C@]2(CC[C@H](OC)CC2)C3)c1 (stereo partly shown) [Example 91, 3-[(1r,4r)-4″-Amino-4-methoxy-5″-methyl-3′H-dispiro[cyclohexane-1,2′-indene-1′,2″-imidazol]-6′-yl]-5-methoxybenzonitrile]
3.5 | COCc1cc(C#N)cc(-c2ccc3c(c2)C2(N=C(C)C(N)=N2)[C@]2(CC[C@H](OC)CC2)C3)c1 (stereo partly shown) [Example 96, 3-[(1r,4r)-4″-Amino-4-methoxy-5″-methyl-3′H-dispiro[cyclohexane-1,2′-indene-1′,2″-imidazol]-6′-yl]-5-(methoxymethyl)benzonitrile]
0.82 | COc1ccc(F)c(-c2ccc3c(c2)[C@@]2(N=C(C)C(N)=N2)[C@]2(CC[C@H](OC)CC2)C3)c1 [Example 98, (1r,1′R,4R)-6′-(2-Fluoro-5-methoxyphenyl)-4-methoxy-5″-methyl-3′H-dispiro[cyclohexane-1,2′-indene-1′,2″-imidazol]-4′″-amine]
5.7 | CO[C@H]1CC[C@]2(CC1)Cc1ccc(-c3cc(F)ccc3F)cc1[C@@]21N=C(C)C(N)=N1 [Example 99, (1r,1′R,4R)-6′-(2,5-Difluorophenyl)-4-methoxy-5′-methyl-3′H-dispiro[cyclohexane-1,2′-indene-1′,2″-imidazol]-4″-amine]
0.59 | CO[C@H]1CC[C@]2(CC1)Cc1ccc(-c3cc(Cl)c(F)c(C#N)c3)cc1[C@@]21N=C(C)C(N)=N1 [Example 100, 5-[(1r,1′R,4R)-4″-amino-4-methoxy-5″-methyl-3′H-dispiro[cyclohexane-1,2′-indene-1′,2″-imidazol]-6′-yl]-3-chloro-2-fluorobenzonitrile]
6.3 | CO[C@H]1CC[C@]2(CC1)Cc1ccc(-c3cccc(F)c3F)cc1[C@@]21N=C(C)C(N)=N1 [Example 101]
2.5 | CO[C@H]1CC[C@]2(CC1)Cc1ccc(-c3cc(C#N)ccc3F)cc1[C@@]21N=C(C)C(N)=N1 [Example 102, 3-[(1r,1′R,4R)-4″-Amino-4-methoxy-5″-methyl-3′H-dispiro[cyclohexane-1,2′-indene-1′,2″-imidazol]-6′-yl]-4-fluorobenzonitrile]
7.9 | CC1=NC2(N=C1N)c1cc(-c3cncc(C(F)(F)F)c3)ccc1C[C@]21CC[C@@H](OC(F)F)CC1 (stereo partly shown) [Example 107]
1.8 | CC1=NC2(N=C1N)c1cc(-c3cc(Cl)cc(C#N)c3)ccc1C[C@]21CC[C@@H](OC(F)F)CC1 (stereo partly shown) [Example 108, 3-[(1r,4r)-4″-Amino-4-(difluoromethoxy)-5″-methyl-3′H-dispiro[cyclohexane-1,2′-indene-1′,2″-imidazol]-6′-yl]-5-chlorobenzonitrile]
4 | COc1cc(-c2ccc3c(c2)C2(N=C(C)C(N)=N2)[C@]2(CC[C@H](OC(F)F)CC2)C3)cc(C#N)c1F (stereo partly shown) [Example 110, 5-[(1r,4r)-4″-Amino-4-(difluoromethoxy)-5″-methyl-3′H-dispiro[cyclohexane-1,2′-indene-1′,2″-imidazol]-6′-yl]-2-fluoro-3-methoxybenzonitrile]
31 | CC#Cc1cncc(-c2ccc3c(c2)C2(N=C(C)C(N)=N2)[C@]2(CC[C@](C)(OC)CC2)C3)c1 (stereo partly shown) [Example 111, (1r,4r)-4-Methoxy-4,5″-dimethyl-6′-[5-(prop-1-yn-1-yl)pyridin-3-yl]-3′H-dispiro[cyclohexane-1,2′-indene-1′,2″-imidazol]-4″-amine]
